Test system: 282377-053-R-J1-PDC complex spheroid viability
Test: Anticancer human tumor 282377-053-R-J1-PDC patient-derived colon adenocarcinoma cell line growth inhibition [RAS]
Conditions: for IC50: curve of first compound; for viability, T/C: stronger effect = lower value
Summary of the method: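 Agents were tested in combination matrices in half-log decrements from a top concentration at or near clinical Cmax (10 microM if undetermined). Targets were multi-cell spheroids of tumour lines plus HUVEC and MSC stromal cells.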

[1] = second compound 0.000949 µM, first compound 0.0316 µM
[2] = second compound 0.000949 µM, first compound 0.1 µM
[3] = second compound 0.003 µM, first compound 0.0316 µM
[4] = second compound 0.003 µM, first compound 0.1 µM
[5] = second compound 0.00949 µM, first compound 0.0316 µM
[6] = second compound 0.00949 µM, first compound 0.1 µM
[7] = second compound 0.03 µM, first compound 0.0316 µM
[8] = second compound 0.03 µM, first compound 0.1 µM
[9] = second compound 0.0949 µM, first compound 0.0316 µM
[10] = second compound 0.0949 µM, first compound 0.1 µM
[11] = second compound 0.3 µM, first compound 0.0316 µM
[12] = second compound 0.3 µM, first compound 0.1 µM
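Note: spheroids exposed to agents for seven days before readout.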
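Throughout, for viability, T/C: luminescence viability as percent of DMSO vehicle control wells.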

`C[C@@H](NC(=O)c1ncnc(N)c1Cl)c1ncc(C(=O)Nc2cc(C(F)(F)F)c(Cl)cn2)s1` + CCn1c(-c2cc(N3CCN(C)CC3)cnc2C(C)OC)c2c3cc(ccc31)-c1csc(n1)CC(NC(=O)C1CC1C)C(=O)N1CCCC(N1)C(=O)OCC(C)(C)C2 was tested, and the IC50 (second compound 0.000949 µM) was over 10000 nM, the IC50 (second compound 0.003 µM) was over 10000 nM and the IC50 (second compound 0.00949 µM) was over 10000 nM. For the same compound, the IC50 (second compound 0.03 µM) was over 10000 nM, the IC50 (second compound 0.0949 µM) was over 10000 nM and the IC50 (second compound 0.3 µM) was over 10000 nM. For the same compound, the viability, T/C [1] was 82.7%, the viability, T/C [2] was 100% and the viability, T/C (second compound 0.000949 µM, first compound 0.316 µM) was 80%. The viability, T/C (second compound 0.000949 µM, first compound 1 µM) was 82.7%, the viability, T/C (second compound 0.000949 µM, first compound 3.16 µM) was 75.6% and the viability, T/C (second compound 0.000949 µM, first compound 10 µM) was 68.8%. The viability, T/C [3] was 89.8%, the viability, T/C [4] was 125% and the viability, T/C (second compound 0.003 µM, first compound 0.316 µM) was 81.8%. The viability, T/C (second compound 0.003 µM, first compound 1 µM) was 90.2%, the viability, T/C (second compound 0.003 µM, first compound 3.16 µM) was 70.6% and the viability, T/C (second compound 0.003 µM, first compound 10 µM) was 59.2%. The viability, T/C [5] was 110%, the viability, T/C [6] was 115% and the viability, T/C (second compound 0.00949 µM, first compound 0.316 µM) was 85.8%. The viability, T/C (second compound 0.00949 µM, first compound 1 µM) was 94%, the viability, T/C (second compound 0.00949 µM, first compound 3.16 µM) was 68% and the viability, T/C (second compound 0.00949 µM, first compound 10 µM) was 57.9%. It also gave a viability, T/C [7] of 97.2%, a viability, T/C [8] of 106% and a viability, T/C (second compound 0.03 µM, first compound 0.316 µM) of 89.4%. The viability, T/C (second compound 0.03 µM, first compound 1 µM) was 96%, the viability, T/C (second compound 0.03 µM, first compound 3.16 µM) was 63.2% and the viability, T/C (second compound 0.03 µM, first compound 10 µM) was 60.1%. It also gave a viability, T/C [9] of 110%, a viability, T/C [10] of 105% and a viability, T/C (second compound 0.0949 µM, first compound 0.316 µM) of 77.1%. It also gave a viability, T/C (second compound 0.0949 µM, first compound 1 µM) of 94.2%, a viability, T/C (second compound 0.0949 µM, first compound 3.16 µM) of 73.1% and a viability, T/C (second compound 0.0949 µM, first compound 10 µM) of 74.2%. The viability, T/C [11] was 94.3%, the viability, T/C [12] was 103% and the viability, T/C (second compound 0.3 µM, first compound 0.316 µM) was 89.3%. It also gave a viability, T/C (second compound 0.3 µM, first compound 1 µM) of 108%, a viability, T/C (second compound 0.3 µM, first compound 3.16 µM) of 86.4% and a viability, T/C (second compound 0.3 µM, first compound 10 µM) of 61.2%.
`CC(C)n1nc(-c2ccc3oc(N)nc3c2)c2c(N)ncnc21` + CCn1c(-c2cc(N3CCN(C)CC3)cnc2C(C)OC)c2c3cc(ccc31)-c1csc(n1)CC(NC(=O)C1CC1C)C(=O)N1CCCC(N1)C(=O)OCC(C)(C)C2 showed an IC50 (second compound 0.000949 µM) of over 100 nM, an IC50 (second compound 0.003 µM) of 60.5 nM and an IC50 (second compound 0.00949 µM) of 96.2 nM. For the same compound, the IC50 (second compound 0.03 µM) was 43.8 nM, the IC50 (second compound 0.0949 µM) was 45.1 nM and the IC50 (second compound 0.3 µM) was over 100 nM. For the same compound, the viability, T/C (second compound 0.000949 µM, first compound 0.000316 µM) was 68.7%, the viability, T/C (second compound 0.000949 µM, first compound 0.001 µM) was 101% and the viability, T/C (second compound 0.000949 µM, first compound 0.00316 µM) was 86.2%. For the same compound, the viability, T/C (second compound 0.000949 µM, first compound 0.01 µM) was 74.5%, the viability, T/C [1] was 64.3% and the viability, T/C [2] was 50.4%. It also gave a viability, T/C (second compound 0.003 µM, first compound 0.000316 µM) of 103%, a viability, T/C (second compound 0.003 µM, first compound 0.001 µM) of 102% and a viability, T/C (second compound 0.003 µM, first compound 0.00316 µM) of 77.8%. It also gave a viability, T/C (second compound 0.003 µM, first compound 0.01 µM) of 72.1%, a viability, T/C [3] of 61.7% and a viability, T/C [4] of 42.1%. For the same compound, the viability, T/C (second compound 0.00949 µM, first compound 0.000316 µM) was 96.1%, the viability, T/C (second compound 0.00949 µM, first compound 0.001 µM) was 102% and the viability, T/C (second compound 0.00949 µM, first compound 0.00316 µM) was 93.8%. For the same compound, the viability, T/C (second compound 0.00949 µM, first compound 0.01 µM) was 73.4%, the viability, T/C [5] was 54.3% and the viability, T/C [6] was 49.5%. It also gave a viability, T/C (second compound 0.03 µM, first compound 0.000316 µM) of 104%, a viability, T/C (second compound 0.03 µM, first compound 0.001 µM) of 88% and a viability, T/C (second compound 0.03 µM, first compound 0.00316 µM) of 88.9%. For the same compound, the viability, T/C (second compound 0.03 µM, first compound 0.01 µM) was 62.4%, the viability, T/C [7] was 54% and the viability, T/C [8] was 43.5%. For the same compound, the viability, T/C (second compound 0.0949 µM, first compound 0.000316 µM) was 100%, the viability, T/C (second compound 0.0949 µM, first compound 0.001 µM) was 84.9% and the viability, T/C (second compound 0.0949 µM, first compound 0.00316 µM) was 86.9%. For the same compound, the viability, T/C (second compound 0.0949 µM, first compound 0.01 µM) was 60.7%, the viability, T/C [9] was 57.7% and the viability, T/C [10] was 39.5%. It also gave a viability, T/C (second compound 0.3 µM, first compound 0.000316 µM) of 90.3%, a viability, T/C (second compound 0.3 µM, first compound 0.001 µM) of 98.8% and a viability, T/C (second compound 0.3 µM, first compound 0.00316 µM) of 78.3%. The viability, T/C (second compound 0.3 µM, first compound 0.01 µM) was 65.5%, the viability, T/C [11] was 58.9% and the viability, T/C [12] was 48.9%.

— PubChem BioAssay AID2060905 (Molecular Pharmacology Branch, DTP, NCI, 2025)
